In patent publication US10017506B2, “ATX modulating agents” (BIOGEN MA INC., priority 2012, dated 2018):

The compounds below were run against T1, Human ATX protein (Homo sapiens, UniProt Q13822) (assay: ATX biochemical FRET assay with FS-3 substrate). Details: FRET substrate FS-3 2 μM, ATX 1.0 μg/mL, 30 minutes pre-incubation, 2 hours at room temperature; read-out: IC50.
T1 construct: made in house
Method in brief: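 Enzyme at 1.0 μg/mL final, pre-incubated with compound (10-point, 3-fold series) for 30 min at RT in Tris pH 7.4 buffer with NaCl, KCl, CaCl2, MgCl2 and 1 mg/mL fatty-acid-free BSA. After FS-3 addition, 2 h at RT protected from light; fluorescence at 485/538 nm.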

| Compound | IC50 |
| --- | --- |
| CC1(C)C(NCc2ccc3ccc(O[C@H]4CC[C@@H](C(F)(F)F)CC4)c(C(F)(F)F)c3c2)CC1C(=O)O (stereo partly drawn) [Example 8, 2,2-dimethyl-3-(((8-(trifluoromethyl)-7-((cis-4-(trifluoromethyl)cyclohexyl)oxy)-naphthalen-2-yl)methyl)amino)cyclobutanecarboxylic acid] | ≤ 250 nM |
| CC[C@H]1CC[C@@H](Oc2ccc3ccc(C(C)NC45CCC(C(=O)O)(CC4)C5)cc3c2C(F)(F)F)CC1 (stereo partly drawn) [Example 130, 4-((1-(7-((cis-4-ethylcyclohexyl)oxy)-8-(trifluoromethyl)naphthalen-2-yl)ethyl)amino)bicyclo[2.2.1]heptane-1-carboxylic acid] | ≤ 250 nM |
| O=C(O)C[C@H]1CCCN(Cc2ccc3ccc(O[C@H]4CC[C@@H](C(F)(F)F)CC4)c(C(F)(F)F)c3c2)C1 [Example 7, 2-((R)-1-((8-(trifluoromethyl)-7-((cis-4-(trifluoromethyl)cyclohexyl)oxy)naphthalen-2-yl)methyl)piperidin-3-yl)acetic acid] | ≤ 100 nM |
| CCC(N[C@H]1CC[C@@H](C(=O)O)CC1)c1ccc2ccc(O[C@H]3CC[C@@H](C)CC3)c(C(F)(F)F)c2c1 (stereo partly drawn) [Example 146, cis-4-((1-(7-((cis-4-methylcyclohexyl)oxy)-8-(trifluoromethyl)naphthalen-2-yl)propyl)amino)cyclohexanecarboxylic acid] | ≤ 250 nM |
| CCC(c1ccc2ccc(O[C@H]3CC[C@@H](CC)CC3)c(C(F)(F)F)c2c1)N1CCC[C@H](CC(=O)O)C1 (stereo partly drawn) [Example 61, 2-((3R)-1-(1-(7-((cis-4-ethylcyclohexyl)oxy)-8-(trifluoromethyl)naphthalen-2-yl)propyl)piperidin-3-yl)acetic acid] | ≤ 250 nM |
| CC[C@H]1CC[C@@H](Oc2ccc3ccc(C(C)NC4CCC(C(=O)O)C4)cc3c2C(F)(F)F)CC1 (stereo partly drawn) [Example 131, 3-((1-(7-((cis-4-ethylcyclohexyl)oxy)-8-(trifluoromethyl)naphthalen-2-yl)ethyl)amino)cyclopentanecarboxylic acid] | ≤ 100 nM |
| CCC(c1ccc2ccc(O[C@H]3CC[C@@H](CC)CC3)c(C(F)(F)F)c2c1)N1CCC(C(=O)O)CC1 (stereo partly drawn) [Example 60, 1-(1-(7-((cis-4-ethylcyclohexyl)oxy)-8-(trifluoromethyl)naphthalen-2-yl)propyl)piperidine-4-carboxylic acid] | ≤ 250 nM |
| CC(N[C@H]1C[C@@H](C(=O)O)C1(C)C)c1ccc2ccc(O[C@H]3CC[C@@H](C)CC3)c(Cl)c2c1 (relative stereo) [Example 93, Cis-3-((1-(8-chloro-7-((cis-4-methylcyclohexyl)oxy)naphthalen-2-yl)ethyl)amino)-2,2-dimethylcyclobutanecarboxylic acid] | ≤ 250 nM |
| O=C(O)CC1CCC(NCc2ccc3ccc(O[C@H]4CC[C@@H](C(F)(F)F)CC4)c(C(F)(F)F)c3c2)CC1 (stereo partly drawn) [Example 126, 2-(4-(((8-(trifluoromethyl)-7-((cis-4-(trifluoromethyl)cyclohexyl)oxy)naphthalen-2-yl)methyl)amino)cyclohexyl)acetic acid] | ≤ 500 nM |
| CC[C@H]1CC[C@@H](Oc2ccc3ccc(C(C)N4CCC[C@H](CC(=O)O)C4)cc3c2C(F)(F)F)CC1 (stereo partly drawn) [Example 58, 2-((3R)-1-(1-(7-((cis-4-ethylcyclohexyl)oxy)-8-(trifluoromethyl)naphthalen-2-yl)ethyl)piperidin-3-yl)acetic acid] | ≤ 250 nM |
| CC(N[C@@H]1C[C@H](C(=O)O)C1(C)C)c1ccc2ccc(O[C@H]3CC[C@@H](C(F)(F)F)CC3)c(C(F)(F)F)c2c1 (stereo partly drawn) [Example 119, (1S,3R)-2,2-dimethyl-3-((1-(8-(trifluoromethyl)-7-((cis-4-(trifluoromethyl)cyclohexyl)oxy)naphthalen-2-yl)ethyl)amino)cyclobutanecarboxylic acid] | ≤ 100 nM |
| CC[C@H]1CC[C@@H](Oc2ccc3ccc([C@H](C)N[C@H]4C[C@H](C(=O)O)C4(C)C)cc3c2C(F)(F)F)CC1 [Example 118a, (1S,3S)-3-(((S)-1-(7-((cis-4-ethylcyclohexyl)oxy)-8-(trifluoromethyl)naphthalen-2-yl)ethyl)amino)-2,2-dimethylcyclobutanecarboxylic acid] | ≤ 500 nM |
| CC(N[C@H]1C[C@@H](C(=O)O)C1(C)C)c1ccc2ccc(O[C@H]3CC[C@@H](C(F)(F)F)CC3)c(C(F)(F)F)c2c1 (stereo partly drawn) [Example 120, (1R,3S)-2,2-dimethyl-3-((1-(8-(trifluoromethyl)-7-((cis-4-(trifluoromethyl)cyclohexyl)oxy)naphthalen-2-yl)ethyl)amino)cyclobutanecarboxylic acid] | ≤ 100 nM |

Same assay, conditions: IC50, FRET substrate FS-3 2 μM, ATX 1.0 μg/mL, 30 minutes pre-incubation, 2 hours at room temperature

| Compound | IC50 |
| --- | --- |
| CCC(c1ccc2ccc(O[C@H]3CC[C@@H](C(F)(F)F)CC3)c(C#N)c2c1)N1C2CCC1CC(C(=O)O)C2 (stereo partly drawn) [Example 40, 8-(1-(8-cyano-7-((cis-4-(trifluoromethyl)cyclohexyl)oxy)naphthalen-2-yl)propyl)-8-azabicyclo[3.2.1]octane-3-carboxylic acid] | ≤ 500 nM |
| C[C@H](c1ccc2ccc(O[C@H]3CC[C@@H](C(F)(F)F)CC3)c(C(F)(F)F)c2c1)N1C2CCC1CC(C(=O)O)C2 (stereo partly drawn) [Example 12b, 8-{(R)-1-[7-(cis-4-trifluoromethyl-cyclohexyloxy)-8-trifluoromethyl-naphthalen-2-yl]-ethyl}-8-aza-bicyclo[3.2.1]octane-3-carboxylic acid] | ≤ 100 nM |
| CC[C@H]1CC[C@@H](Oc2ccc3ccc(C(C)N4C5CCC4CC(C(=O)O)C5)cc3c2C(F)F)CC1 (stereo partly drawn) [Example 63, 8-(1-(8-(difluoromethyl)-7-((cis-4-ethylcyclohexyl)oxy)naphthalen-2-yl)ethyl)-8-azabicyclo[3.2.1]octane-3-carboxylic acid] | ≤ 100 nM |
| C[C@H]1CC[C@@H](Oc2ccc3ccc(CN4C5CCCC4CC(C(=O)O)C5)cc3c2C#N)CC1 (stereo partly drawn) [Example 98, 9-((8-cyano-7-((cis-4-methylcyclohexyl)oxy)naphthalen-2-yl)methyl)-9-azabicyclo[3.3.1]nonane-3-carboxylic acid] | ≤ 100 nM |
| C[C@H]1CC[C@@H](Oc2ccc3ccc(C(=O)N4C5CCCC4CC(C(=O)O)C5)cc3c2C(F)(F)F)CC1 (stereo partly shown) [Example 13, 9-[7-(4-methyl-cyclohexyloxy)-8-trifluoromethyl-naphthalene-2-carbonyl]-9-aza-bicyclo [3.3.1]nonane-3-carboxylic acid] | ≤ 500 nM |
| CC[C@H]1CC[C@@H](Oc2ccc3ccc(C(C)N4C5CCCC4CC(C(=O)O)C5)cc3c2C#N)CC1 (stereo partly drawn) [Example 74, 9-(1-(8-cyano-7-((cis-4-ethylcyclohexyl)oxy)naphthalen-2-yl)ethyl)-9-azabicyclo[3.3.1]nonane-3-carboxylic acid] | ≤ 100 nM |
| CC[C@H]1CC[C@@H](Oc2ccc3ccc(CN4C5CCC4CC(C(=O)O)C5)cc3c2C#N)CC1 (stereo partly drawn) [Example 70, 8-((8-cyano-7-((cis-4-ethylcyclohexyl)oxy)naphthalen-2-yl)methyl)-8-azabicyclo[3.2.1]octane-3-carboxylic acid] | ≤ 100 nM |
| O=C(O)C1CC2CCCC(C1)N2Cc1ccc2ccc(O[C@H]3CC[C@@H](C(F)(F)F)CC3)c(Cl)c2c1 (stereo partly drawn) [Example 27, 9-((8-chloro-7-((cis-4-(trifluoromethyl)cyclohexyl)oxy)naphthalen-2-yl)methyl)-9-azabicyclo[3.3.1]nonane-3-carboxylic acid] | ≤ 100 nM |
| CC(c1ccc2ccc(O[C@H]3CC[C@@H](C(F)(F)F)CC3)c(C(F)F)c2c1)N1C2CCC1CC(C(=O)O)C2 (stereo partly drawn) [Example 42, 8-(1-(8-(difluoromethyl)-7-((cis-4-(trifluoromethyl)cyclohexyl)oxy)naphthalen-2-yl)ethyl)-8-azabicyclo[3.2.1]octane-3-carboxylic acid] | ≤ 100 nM |
| CC(c1ccc2ccc(O[C@H]3CC[C@@H](C)CC3)c(C#N)c2c1)N1C2CCC1CC(C(=O)O)C2 (stereo partly drawn) [Example 101, 8-(1-(8-cyano-7-((cis-4-methylcyclohexyl)oxy)naphthalen-2-yl)ethyl)-8-azabicyclo[3.2.1]octane-3-carboxylic acid] | ≤ 100 nM |
| CC[C@H]1CC[C@@H](Oc2ccc3ccc(CN4C5CCCC4CC(C(=O)O)C5)cc3c2Cl)CC1 (relative stereo) [Example 49, 9-((8-chloro-7-((cis-4-ethylcyclohexyl)oxy)naphthalen-2-yl)methyl)-9-azabicyclo[3.3.1]nonane-3-carboxylic acid] | ≤ 100 nM |
| C[C@H]1CC[C@@H](Oc2ccc3ccc(CN4C5CCCC4CC(C(=O)O)C5)cc3c2C(F)F)CC1 (stereo partly drawn) [Example 86, 9-((8-(difluoromethyl)-7-((cis-4-methylcyclohexyl)oxy)naphthalen-2-yl)methyl)-9-azabicyclo[3.3.1]nonane-3-carboxylic acid] | ≤ 100 nM |
| CC[C@H]1CC[C@@H](Oc2ccc3ccc([C@H](C)N4C5CCCC4CC(C(=O)O)C5)cc3c2C(F)(F)F)CC1 (stereo partly drawn) [Example 133a, 9-((S)-1-(7-((cis-4-ethylcyclohexyl)oxy)-8-(trifluoromethyl)naphthalen-2-yl)ethyl)-9-azabicyclo[3.3.1]nonane-3-carboxylic acid] | ≤ 100 nM |
| C[C@H]1CC[C@@H](Oc2ccc3ccc(CN4C5CCC4CC(C(=O)O)C5)cc3c2C(F)(F)F)CC1 (stereo partly drawn) [Example 3, 8-[7-(cis-4-methyl-cyclohexyloxy)-8-trifluoromethyl-naphthalen-2-ylmethyl]-8-aza-bicyclo[3.2.1]octane-3-carboxylic acid] | ≤ 100 nM |
| C[C@H]1CC[C@@H](Oc2ccc3cc(F)c(CN4C5CCCC4CC(C(=O)O)C5)cc3c2C(F)(F)F)CC1 (stereo partly drawn) [Example 138, 9-((3-fluoro-7-((cis-4-methylcyclohexyl)oxy)-8-(trifluoromethyl)naphthalen-2-yl)methyl)-9-azabicyclo[3.3.1]nonane-3-carboxylic acid] | ≤ 250 nM |
